Assay results reported in paper PMC6522510 (Nature Communications, 2019).

Columns and labels:
Parameters in all cases: species or system AML cell lines (8); Primary HTS, single concentration about 10 uM, Cell Titer Glo viability; log10 luminescence, per cent inhibition relative to cycloheximide control
Conditions in all cases: 72 h, relative to cycloheximide control, log10 luminescence; inhibitor
ML-2 = system: ML-2
M07e = system: M07e
CMS = system: CMS
U937 = system: U937
MOLM-13 = system: MOLM-13
CHRF288-11 = system: CHRF288-11
CMK = system: CMK
MV4-11 = system: MV4-11

Compound	ML-2 %inh (ML-2) [%]	M07e %inh (M07e) [%]	CMS %inh (CMS) [%]	U937 %inh (U937) [%]	MOLM-13 %inh (MOLM-13) [%]	CHRF288-11 %inh (CHRF288-11) [%]	CMK %inh (CMK) [%]	MV4-11 %inh (MV4-11) [%]
N#CC[C@H](C1CCCC1)n1cc(-c2ncnc3[nH]ccc23)cn1 [SJ000574296-1, RUXOLITINIB | INCB-18424 | INCB-018424 | NCB018424 | INC-424 | INCB-424 | RUXOLITINIB | INCB-18424 | INCB-018424 | NCB018424 | INC-424 | INCB-424 | | RUXOLITINIB (INCB018424) | S-RUXOLITINIB (INCB018424)]	4.441	44.64	86.42	33.85	27.41	79.68	85.02	11.92
CCC(=O)O[C@]1(C(=O)CCl)[C@@H](C)C[C@H]2[C@@H]3C[C@H](F)C4=CC(=O)C=C[C@]4(C)[C@@]3(F)[C@@H](O)C[C@@]21C [SJ000574311-1, HALOBETASOL PROPIONATE]	0.4055	1.449	-1.131	2.458	-1.713	2.781	-5.875	1.288
COC(=O)C1=C(C)N(CCc2cc(OC)c(OC)c(OC)c2)C(=O)N[C@H]1c1ccccc1 [SJ000579768-1]	-0.773	-5.412	-1.498	-0.6782	-2.193	-6.017	-0.2715	3.524
CC1(OC(=O)C2CCCC2)C(=O)C=C2C=C(c3ccsc3)N(CCCCO)C=C2C1=O (stereo not shown) [SJ000579780-1]	-1.026	-0.9393	0.1638	-0.2771	6.828	-0.7955	-4.183	-0.2702
CC(=O)[C@@H]1[C@@H](C)N(Cc2ccccc2)C(=O)N[C@H]1c1cccc(C(F)(F)F)c1 [SJ000579797-1]	0.485	-1.436	1.099	0.542	-2.815	8.301	-5.628	0.5112
COC(=O)CCC(=O)OC1(C)C(=O)C=C2C=C(C3CC3)N(Cc3ccc(OC)cc3)C=C2C1=O (stereo not shown) [SJ000579817-1]	0.04263	4.577	1.001	-0.6979	6.903	-0.5157	0.09613	0.1893
COC(=O)CCCC1=CC2=CC(=O)C(C)(OC(=O)c3cccs3)C(=O)C2=CN1C1CCCCC1 (stereo not shown) [SJ000579837-1]	1.343	-0.3619	-0.4009	1.516	2.949	2.103	6.006	0.3457
COc1ccc(C2=CC3=C(Br)C(=O)C(C)(O)C(=O)C3=CO2)cc1 (stereo not shown) [SJ000580186-1]	-0.5513	0.3527	-0.7753	1.575	3.615	-2.02	-1.841	1.031
CC1(OC(=O)C2CCCC2)C(=O)C=C2C=C(c3ccsc3)OC=C2C1=O (stereo not shown) [SJ000580213-1]	-0.1394	-2.766	3.861	2.696	3.751	1.734	0.9758	0.3204
CC1(OC(=O)c2cccs2)C(=O)C=C2C=C3CCCN3C=C2C1=O (stereo not shown) [SJ000580493-1]	-0.6831	2.009	2.99	1.415	-0.7413	4.124	4.862	2.091
COc1ccc(O)c(C(=O)c2ccc(C(=O)O[C@@H]3CCCNC[C@H]3NC(=O)c3ccncc3)cc2)c1F [SJ000580951-1]	61.64	15.86	13.47	74.66	81.23	109.9	131.3	68.34
Cn1cc(C2=C(c3cn(CCCCN)c4ccccc34)C(=O)NC2=O)c2ccccc21 [SJ000580952-1]	4.061	-0.5312	1.981	11.79	4.295	13.76	13.68	8.937
CC(=O)N[C@@H](Cc1ccc(OP(=O)(O)O)cc1)C(=O)N[C@H]1CCC(=O)N2CCC[C@@H](C(=O)NC3CCc4ccccc43)N2C1=O (stereo partly shown) [SJ000580953-1]	0.02578	-2.209	-2.328	-1.364	0.9252	3.338	1.012	-1.841
O=C1NC(=NCCc2ccc(F)cc2)S/C1=C\c1ccc2ncccc2c1 [SJ000580954-1]	0.5359	-2.647	-3.568	1.346	4.197	-1.783	4.249	-0.3593
CC(C)c1[nH]nc2c1N=C(c1ccccc1Cl)c1cc([N+](=O)[O-])ccc1N2 [SJ000580955-1]	-0.2118	0.02064	-2.316	-1.286	0.5223	1.018	2.501	1.567
O=C1NC(=NCCc2cccc(Cl)c2)S/C1=C\c1ccc2ncccc2c1 [SJ000580956-1]	10.56	0.9407	5.008	20	9.124	2.333	32.59	2.972
C[C@@H](Cn1ncnn1)Nc1ncc2cc(Oc3ccc(F)cc3F)c(=O)n(C)c2n1 [SJ000580957-1]	0.7836	0.2176	0.2461	0.5561	1.122	0.5625	6.727	-1.139
Cn1c(=O)c(Cc2ccccc2F)cc2cnc(NC3CCOCC3)nc21 [SJ000580958-1]	0.5571	0.7689	0.1397	8.088	5.832	0.1529	5.964	6.415
O=C1NC(=Nc2ccccc2)S/C1=C\c1ccc2ncccc2c1 [SJ000580960-1]	0.4587	-2.396	-0.1285	2.19	1.819	-1.26	5.474	2.663
O=c1c(Oc2ccc(F)cc2F)cc2cnc(NC3CCOCC3)nc2n1C1CCS(=O)(=O)CC1 [SJ000580961-1]	0.6064	-1.798	-0.4155	4.388	0.9477	-4.195	4.971	0.879
O=c1c(Oc2ccc(F)cc2F)cc2cnc(NC3CCOCC3)nc2n1CCCO [SJ000580962-1]	1.08	-0.6973	2.142	2.637	0.8881	3.259	6.717	3.176
Cn1cc(C2=C(c3c4n(c5ccccc35)CCCC4)C(=O)NC2=O)c2ccccc21 [SJ000580963-1]	20.63	29.09	9.345	27.07	2.901	3.717	59.12	8.237
Cn1c(=O)c(Oc2ccc(F)cc2F)cc2cnc(NCCS(C)(=O)=O)nc21 [SJ000580964-1]	-0.4027	-0.966	-1.101	5.046	0.541	-0.5727	2.942	3.561
